# What was measured:
# [1] = Solubility of phytosphingosine in solvents; type: physicochemical; details: solvent: mixture of water, lactic acid and a willow bark extract
# [2] = cited from earlier work
smiles,measurement,setting,value
"CCCCCCCCCCCCCC[C@@H](O)[C@@H](O)[C@@H](N)CO [Phytosphingosine, phytosphingosine]",Amount solubilized to give a completely clear solution,[1],5-10 weight %
same,Solubility in isocetyl alcohol,[2]; isocetyl alcohol,1 wt %
same,Solubility in water,[2]; water,not soluble in water at all

# From patent US6403111B1, “Method for preparing aqueous phytosphingosine solution” (Doosan Corporation, priority 2000, dated 2002)
